The source of these data is EP2730585B1, “PROTEIN-P[…] OBTAINED FROM TISSUES OF EMBRYOS OF HOOFED ANIMALS , USE ON SKIN TISSUE, METHOD FOR PRODUCING SAID COMPLEX AND PHARMACEUTICAL COMPOSITION” (Aktsionernoe Obschestvo "Pharm-Sintez", priority 2011, dated 2012).

The data set concerns mice marrow cells. As to conditions: 20 mg/kg.

Method: The study objective was detection and quantitative estimate of cytogenetic (mutagenic) activity of pharmacologic substances in polychromatophil cells (PCC) of mammal marrow. The method is based on microscopic recording of cells with micronuclei.
The experiments were performed to 2 months old male and female F1 (CBAx C57BI6/J) cross-breed mice weighing 18-20 g. Each group included 6 animals. The animals were kept at 12 hours light pattern with free food and water access. Animal experiments for assessment of mutagenic properties of the protein/polypeptide complex with single and five-time dosing were conducted in compliance with official records. Three sessions of experiments were carried out with corresponding controls: therapeutic dose was tested on male animals with a single introduction; subtoxic dose was tested on male animals with a single introduction; therapeutic dose was tested on male animals with a single introduction; subtoxic dose was tested on male animals and female with five-time introduction.
Taking into account that the possible presumed method for usage of the PPC at a clinic was intracutaneous, subcutaneous introduction, and external application, in this study subcutaneous introduction of the substance to mice was used. The PPC complex dosing for assessment of mutagenic activity was calculated based on the maximum human recommended daily therapeutic dose (TD). Subcutaneous introduction of PPC was recommended in the amount of 0.2 to 6 ml at 0.1 mg/ml concentration. In this case, a human therapeutic dose (TD), including a child's dose, can be 0.08 mg/kg/daily. In order to calculate an experiment dosing for mice, a conversion factor is recommended that takes into account a human or animal body surface area to weight ratio. In our study, it was 8.33. Therefore, the mice TD was approximately 8.33 x human TD (0.7 mg/kg).
As a subtoxic dose, 10mg/kg, the maximum possible in this experiment conditions dosing was used, as the substance was presented in 0.1 mg/ml concentration, and the normally used amount of substance for mice is 0.1 ml per 10 g. […]

Take `O=P1(N(CCCl)CCCl)NCCCO1` (stereo not drawn) [Cyclophosphamide, cyclophosphamide]: the “polychromatophilic to normochromatic erythrocytes ratio” value (compared to control P<0.005) is given as “found to shift to the latter”. For the same compound, the “frequency of micronucleus cells” value (male mice) is 62.1%. The “increased frequency of micronucleus cells” value (male mice, against reference, P<0.001) was determined as 19.6 times.
